In article PMC9090415, “Discovery of small molecule inhibitors of Plasmodium falciparum apicoplast DNA polymerase” (Journal of Enzyme Inhibition and Medicinal Chemistry, 2022):

Target: P. falciparum apicoplast DNA polymerase (Pf-apPOL) (Plasmodium falciparum, UniProt Q8ILY1)
Experiment: Fluorescence-based high-throughput DNA polymerase assay (molecular beacon), primary screen and dose-response;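 on % inhibition ApPOL 90': test concentration in µM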;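 on % inhibition Apol 40': compound concentration given in µM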;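 on % inhibition apPOL 180': test concentration in µM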
Assay type: biochemical
Details: for DNA Pol: 90 min, 10 µM
Outline: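 Single-point screening used 10 µM compound with 20 nM polymerase, 20 nM hairpin substrate and 6 µM dNTPs for 90 min at 25 °C. Confirmatory titrations (2.5–80 µM) followed fluorescence at three times, and IC50 was derived from a fit including a cooperativity term n.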

[1] = "DNA Pol" of the 186 hits list (screen value)

Chain of P. falciparum apicoplast DNA polymerase (Pf-apPOL) (Q8ILY1 entry or part of it): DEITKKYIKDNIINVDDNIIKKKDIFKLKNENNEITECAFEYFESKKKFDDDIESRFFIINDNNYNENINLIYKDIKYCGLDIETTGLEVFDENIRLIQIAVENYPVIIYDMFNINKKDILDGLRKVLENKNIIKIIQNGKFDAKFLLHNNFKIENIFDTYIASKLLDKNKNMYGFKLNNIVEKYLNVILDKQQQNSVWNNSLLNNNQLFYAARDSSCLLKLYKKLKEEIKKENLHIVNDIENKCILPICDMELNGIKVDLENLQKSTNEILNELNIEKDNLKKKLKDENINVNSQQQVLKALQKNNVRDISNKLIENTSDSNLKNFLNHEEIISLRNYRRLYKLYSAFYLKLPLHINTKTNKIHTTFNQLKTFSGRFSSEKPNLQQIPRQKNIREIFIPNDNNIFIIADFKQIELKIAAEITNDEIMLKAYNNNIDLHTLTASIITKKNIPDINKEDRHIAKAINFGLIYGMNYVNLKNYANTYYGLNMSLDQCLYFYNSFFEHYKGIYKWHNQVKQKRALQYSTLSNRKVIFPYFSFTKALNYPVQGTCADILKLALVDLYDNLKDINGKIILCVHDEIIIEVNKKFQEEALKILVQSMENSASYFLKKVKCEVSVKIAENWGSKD

COc1cccc(C(=O)N2CCc3c(nc4cc(-c5ccccc5)[nH]n4c3=O)C2)c1OC [Molecule 22, COc1c(OC)cccc1C(=O)N1CCc2c(C1)nc1n(c2=O)[nH]c(c1)c1ccccc1]
DNA Pol [1]: 45
% inhibition Apo pol 10' (DRC-1, concentration 2.5): -0.412%
% inhibition Apo pol 10' (DRC-1, concentration 5): 25%
% inhibition Apo pol 10' (DRC-1, concentration 10): 67%
% inhibition Apo pol 10' (DRC-1, concentration 20): 81%
% inhibition Apo pol 10' (DRC-1, concentration 40): 88%
% inhibition Apo pol 10' (DRC-1, concentration 80): 81%
% inhibition Apol 90' (DRC-1, concentration 2.5): -3%
% inhibition Apol 90' (DRC-1, concentration 5): 12%
% inhibition Apol 90' (DRC-1, concentration 10): 49%
% inhibition Apol 90' (DRC-1, concentration 20): 67%
% inhibition Apol 90' (DRC-1, concentration 40): 83%
% inhibition Apol 90' (DRC-1, concentration 80): 84%
% inhibition apPOL 180' (DRC-1, concentration 2.5): -5.7%
% inhibition apPOL 180' (DRC-1, concentration 5): 2.34%
% inhibition apPOL 180' (DRC-1, concentration 10): 32%
% inhibition apPOL 180' (DRC-1, concentration 20): 49%
% inhibition apPOL 180' (DRC-1, concentration 40): 73%
% inhibition apPOL 180' (DRC-1, concentration 80): 78%
% inhibition Apo pol 5' (DRC-2, concentration 2.5): -0.913%
% inhibition Apo pol 5' (DRC-2, concentration 5): 19%
% inhibition Apo pol 5' (DRC-2, concentration 10): 42%
% inhibition Apo pol 5' (DRC-2, concentration 20): 52%
% inhibition Apo pol 5' (DRC-2, concentration 40): 55%
% inhibition Apo pol 5' (DRC-2, concentration 80): 47%
% inhibition Apol 40' (DRC-2, concentration 2.5): -1.15%
% inhibition Apol 40' (DRC-2, concentration 5): 21%
% inhibition Apol 40' (DRC-2, concentration 10): 45%
% inhibition Apol 40' (DRC-2, concentration 20): 61%
% inhibition Apol 40' (DRC-2, concentration 40): 69%
% inhibition Apol 40' (DRC-2, concentration 80): 66%
% inhibition ApPOL 90' (DRC-2, concentration 2.5): 0.469%
% inhibition ApPOL 90' (DRC-2, concentration 5): 20%
% inhibition ApPOL 90' (DRC-2, concentration 10): 44%
% inhibition ApPOL 90' (DRC-2, concentration 20): 61%
% inhibition ApPOL 90' (DRC-2, concentration 40): 70%
% inhibition ApPOL 90' (DRC-2, concentration 80): 70%
% inhibition apPOL 180' (DRC-2, concentration 2.5): -0.311%
% inhibition apPOL 180' (DRC-2, concentration 5): 13%
% inhibition apPOL 180' (DRC-2, concentration 10): 34%
% inhibition apPOL 180' (DRC-2, concentration 20): 53%
% inhibition apPOL 180' (DRC-2, concentration 40): 65%
% inhibition apPOL 180' (DRC-2, concentration 80): 69%
% inhibition Apo pol 10' (first DRC, concentration 10): 67%
% inhibition Apo pol 10' (first DRC, concentration 20): 81%
% inhibition Apo pol 10' (first DRC, concentration 80): 81%
% inhibition Apol 90' (first DRC, concentration 10): 49%
% inhibition Apol 90' (first DRC, concentration 20): 67%
% inhibition apPOL 180' (first DRC, concentration 20): 49%
DNA Pol (primary screen value, DNA Pol): 45

O=[N+]([O-])c1ccc(/C=C/c2ccc3ccccc3n2)o1 [Molecule 21, O=N(=O)c1ccc(o1)/C=C/c1ccc2c(n1)cccc2]
DNA Pol [1]: 59
% inhibition Apo pol 10' (DRC-1, concentration 2.5): 21.0135%
% inhibition Apo pol 10' (DRC-1, concentration 5): 49.9982%
% inhibition Apo pol 10' (DRC-1, concentration 10): 70.3482%
% inhibition Apo pol 10' (DRC-1, concentration 20): 76.4404%
% inhibition Apo pol 10' (DRC-1, concentration 40): 64.8126%
% inhibition Apo pol 10' (DRC-1, concentration 80): 40.0961%
% inhibition Apol 90' (DRC-1, concentration 2.5): 13.3257%
% inhibition Apol 90' (DRC-1, concentration 5): 34.694%
% inhibition Apol 90' (DRC-1, concentration 10): 59.8691%
% inhibition Apol 90' (DRC-1, concentration 20): 78.6772%
% inhibition Apol 90' (DRC-1, concentration 40): 78.7593%
% inhibition Apol 90' (DRC-1, concentration 80): 64.7186%
% inhibition apPOL 180' (DRC-1, concentration 2.5): 4.404%
% inhibition apPOL 180' (DRC-1, concentration 5): 20.9702%
% inhibition apPOL 180' (DRC-1, concentration 10): 46.0127%
% inhibition apPOL 180' (DRC-1, concentration 20): 74.6169%
% inhibition apPOL 180' (DRC-1, concentration 40): 82.0338%
% inhibition apPOL 180' (DRC-1, concentration 80): 72.6505%
% inhibition Apo pol 5' (DRC-2, concentration 2.5): 37%
% inhibition Apo pol 5' (DRC-2, concentration 5): 38%
% inhibition Apo pol 5' (DRC-2, concentration 10): 41%
% inhibition Apo pol 5' (DRC-2, concentration 20): 27%
% inhibition Apo pol 5' (DRC-2, concentration 40): 16%
% inhibition Apo pol 5' (DRC-2, concentration 80): -66%
% inhibition Apol 40' (DRC-2, concentration 2.5): 44%
% inhibition Apol 40' (DRC-2, concentration 5): 51%
% inhibition Apol 40' (DRC-2, concentration 10): 63%
% inhibition Apol 40' (DRC-2, concentration 20): 61%
% inhibition Apol 40' (DRC-2, concentration 40): 54%
% inhibition Apol 40' (DRC-2, concentration 80): 10%
% inhibition ApPOL 90' (DRC-2, concentration 2.5): 41%
% inhibition ApPOL 90' (DRC-2, concentration 5): 50%
% inhibition ApPOL 90' (DRC-2, concentration 10): 65%
% inhibition ApPOL 90' (DRC-2, concentration 20): 67%
% inhibition ApPOL 90' (DRC-2, concentration 40): 62%
% inhibition ApPOL 90' (DRC-2, concentration 80): 30%
% inhibition apPOL 180' (DRC-2, concentration 2.5): 29%
% inhibition apPOL 180' (DRC-2, concentration 5): 39%
% inhibition apPOL 180' (DRC-2, concentration 10): 61%
% inhibition apPOL 180' (DRC-2, concentration 20): 71%
% inhibition apPOL 180' (DRC-2, concentration 40): 69%
% inhibition apPOL 180' (DRC-2, concentration 80): 50%
DNA Pol (primary screen value, DNA Pol): 59
